In ChEMBL document CHEMBL2086254, “Synthesis and identification of novel indolo[2,3-a]pyrimido[5,4-c]carbazoles as a new class of anti-cancer agents” (Eur J Med Chem, 2012):
Calls of active or inactive are those of the source. No cut-off for these calls is given here.

What was measured:
OVCAR-8 = test: Cytotoxicity against human OVCAR8 cells assessed as cell growth at 10 uM after 48 hrs by SRB assay relative to control; type: functional; conditions: OVCAR-8, 48 h, read-out: Activity
K562 = test: Cytotoxicity against human K562 cells assessed as cell growth at 10 uM after 48 hrs by SRB assay relative to control; type: functional; conditions: K562, 48 h, read-out: Activity
UACC-62 = test: Cytotoxicity against human UACC62 cells assessed as cell growth at 10 uM after 48 hrs by SRB assay relative to control; type: functional; conditions: UACC-62, 48 h, read-out: Activity
SK-MEL-5 = test: Cytotoxicity against human SK-MEL-5 cells assessed as cell growth at 10 uM after 48 hrs by SRB assay relative to control; type: functional; conditions: SK-MEL-5, 48 h, read-out: Activity
MOLT-4 = test: Cytotoxicity against human MOLT4 cells assessed as cell growth at 10 uM after 48 hrs by SRB assay relative to control; type: functional; conditions: MOLT-4, 48 h, read-out: Activity
PC-3 = test: Cytotoxicity against human PC3 cells assessed as cell growth at 10 uM after 48 hrs by SRB assay relative to control; type: functional; conditions: PC-3, 48 h, read-out: Activity
CCRF-CEM = test: Cytotoxicity against human CCRF-CEM cells assessed as cell growth at 10 uM after 48 hrs by SRB assay relative to control; type: functional; conditions: read-out: Activity
SN12C = test: Cytotoxicity against human SN12C cells assessed as cell growth at 10 uM after 48 hrs by SRB assay relative to control; type: functional; conditions: read-out: Activity
OVCAR-5 = test: Cytotoxicity against human OVCAR5 cells assessed as cell growth at 10 uM after 48 hrs by SRB assay relative to control; type: functional; conditions: OVCAR-5, 48 h, read-out: Activity
HCT-116 = test: Cytotoxicity against human HCT116 cells assessed as cell growth at 10 uM after 48 hrs by SRB assay relative to control; type: functional; conditions: HCT-116, 48 h, read-out: Activity
[1] = target: DNA topoisomerase 2-alpha (Homo sapiens) (UniProt P11388); test: Inhibition of human DNA topoisomerase 2 at 100 uM after 1 hr by agarose gel circular DNA decatenation assay
DNA topoisomerase 2-alpha (Homo sapiens), sequence (P11388 whole entry): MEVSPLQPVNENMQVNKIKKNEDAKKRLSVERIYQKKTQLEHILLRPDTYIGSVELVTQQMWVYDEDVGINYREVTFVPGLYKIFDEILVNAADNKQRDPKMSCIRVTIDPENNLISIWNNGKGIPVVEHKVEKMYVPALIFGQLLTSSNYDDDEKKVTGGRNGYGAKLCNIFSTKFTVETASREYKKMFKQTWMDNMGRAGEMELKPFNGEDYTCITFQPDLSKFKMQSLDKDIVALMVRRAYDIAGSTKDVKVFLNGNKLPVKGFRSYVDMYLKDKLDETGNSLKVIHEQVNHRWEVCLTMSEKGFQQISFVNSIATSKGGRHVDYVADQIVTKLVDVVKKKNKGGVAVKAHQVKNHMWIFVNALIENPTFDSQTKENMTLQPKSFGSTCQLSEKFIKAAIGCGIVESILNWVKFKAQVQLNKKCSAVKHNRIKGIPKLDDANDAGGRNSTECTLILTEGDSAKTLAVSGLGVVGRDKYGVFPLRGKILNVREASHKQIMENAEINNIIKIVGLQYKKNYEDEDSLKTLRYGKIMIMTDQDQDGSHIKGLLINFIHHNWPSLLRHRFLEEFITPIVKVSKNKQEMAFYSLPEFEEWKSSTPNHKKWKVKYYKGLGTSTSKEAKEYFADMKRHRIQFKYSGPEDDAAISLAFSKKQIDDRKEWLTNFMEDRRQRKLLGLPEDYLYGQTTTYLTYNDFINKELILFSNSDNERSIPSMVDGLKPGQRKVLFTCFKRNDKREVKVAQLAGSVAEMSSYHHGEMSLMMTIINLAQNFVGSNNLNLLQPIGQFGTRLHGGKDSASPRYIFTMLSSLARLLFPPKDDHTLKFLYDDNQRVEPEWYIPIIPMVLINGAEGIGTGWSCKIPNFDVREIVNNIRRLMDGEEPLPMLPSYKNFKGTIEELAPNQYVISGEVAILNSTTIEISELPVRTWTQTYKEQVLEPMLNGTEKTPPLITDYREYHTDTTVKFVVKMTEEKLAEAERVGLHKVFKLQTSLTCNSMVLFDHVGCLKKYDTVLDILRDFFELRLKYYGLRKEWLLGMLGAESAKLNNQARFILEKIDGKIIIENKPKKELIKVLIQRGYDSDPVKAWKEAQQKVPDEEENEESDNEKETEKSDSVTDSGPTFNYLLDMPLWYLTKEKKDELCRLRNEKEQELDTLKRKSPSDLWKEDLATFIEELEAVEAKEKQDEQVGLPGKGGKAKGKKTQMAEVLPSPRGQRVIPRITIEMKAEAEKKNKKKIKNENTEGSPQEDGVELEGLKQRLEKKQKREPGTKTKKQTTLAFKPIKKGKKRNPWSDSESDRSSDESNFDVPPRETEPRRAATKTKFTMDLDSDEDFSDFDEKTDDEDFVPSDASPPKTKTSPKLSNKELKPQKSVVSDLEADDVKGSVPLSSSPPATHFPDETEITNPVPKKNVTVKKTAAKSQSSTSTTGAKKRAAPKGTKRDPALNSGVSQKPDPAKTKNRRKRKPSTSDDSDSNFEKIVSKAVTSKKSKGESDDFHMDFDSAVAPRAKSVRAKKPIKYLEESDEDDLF

SK-OV-3 = test: Cytotoxicity against human SKOV3 cells assessed as cell growth at 10 uM after 48 hrs by SRB assay relative to control; type: functional; conditions: SK-OV-3, 48 h, read-out: Activity
EKVX = test: Cytotoxicity against human EKVX cells assessed as cell growth at 10 uM after 48 hrs by SRB assay relative to control; type: functional; conditions: read-out: Activity
A549 = test: Cytotoxicity against human A549 cells assessed as cell growth at 10 uM after 48 hrs by SRB assay relative to control; type: functional; conditions: A549, 48 h, read-out: Activity
HT-29 = test: Cytotoxicity against human HT-29 cells assessed as cell growth at 10 uM after 48 hrs by SRB assay relative to control; type: functional; conditions: HT-29, 48 h, read-out: Activity
HL-60 = test: Cytotoxicity against human HL60 cells assessed as cell growth at 10 uM after 48 hrs by SRB assay relative to control; type: functional; conditions: HL-60, 48 h, read-out: Activity
OVCAR-3 = test: Cytotoxicity against human OVCAR3 cells assessed as cell growth at 10 uM after 48 hrs by SRB assay relative to control; type: functional; conditions: OVCAR-3, 48 h, read-out: Activity
LOX IMVI = test: Cytotoxicity against human LOXIMVI cells assessed as cell growth at 10 uM after 48 hrs by SRB assay relative to control; type: functional; conditions: read-out: Activity
MDA-MB-231 = test: Cytotoxicity against human MDA-MB-231 cells assessed as cell growth at 10 uM after 48 hrs by SRB assay relative to control; type: functional; conditions: MDA-MB-231, 48 h, read-out: Activity
CAKI-1 = test: Cytotoxicity against human Caki1 cells assessed as cell growth at 10 uM after 48 hrs by SRB assay relative to control; type: functional; conditions: CAKI-1, 48 h, read-out: Activity
SR = test: Cytotoxicity against human SR cells assessed as cell growth at 10 uM after 48 hrs by SRB assay relative to control; type: functional; conditions: read-out: Activity
OVCAR-4 = test: Cytotoxicity against human OVCAR4 cells assessed as cell growth at 10 uM after 48 hrs by SRB assay relative to control; type: functional; conditions: OVCAR-4, 48 h, read-out: Activity
786-0 = test: Cytotoxicity against human 786-0 cells assessed as cell growth at 10 uM after 48 hrs by SRB assay relative to control; type: functional; conditions: 786-0, 48 h, read-out: Activity
COLO 205 = test: Cytotoxicity against human COLO205 cells assessed as cell growth at 10 uM after 48 hrs by SRB assay relative to control; type: functional; conditions: COLO 205, 48 h, read-out: Activity
NCI-H322M = test: Cytotoxicity against human NCI-H322M cells assessed as cell growth at 10 uM after 48 hrs by SRB assay relative to control; type: functional; conditions: read-out: Activity

| Structure (SMILES) | growth at 10 µM (OVCAR-8) [%] | growth at 10 µM (K562) [%] | growth at 10 µM (UACC-62) [%] | growth at 10 µM (SK-MEL-5) [%] | growth at 10 µM (MOLT-4) [%] | growth at 10 µM (PC-3) [%] | growth at 10 µM (CCRF-CEM) [%] | growth at 10 µM (SN12C) [%] | growth at 10 µM (OVCAR-5) [%] | growth at 10 µM (HCT-116) [%] | growth at 10 µM (SK-OV-3) [%] | growth at 10 µM (EKVX) [%] | growth at 10 µM (A549) [%] | growth at 10 µM (HT-29) [%] | growth at 10 µM (HL-60) [%] | growth at 10 µM (OVCAR-3) [%] | growth at 10 µM (LOX IMVI) [%] | growth at 10 µM (MDA-MB-231) [%] | growth at 10 µM (CAKI-1) [%] | growth at 10 µM (SR) [%] | further results |
| --- | --- | --- | --- | --- | --- | --- | --- | --- | --- | --- | --- | --- | --- | --- | --- | --- | --- | --- | --- | --- | --- |
| Cn1c2ccccc2c2c3c(=O)[nH]c(N)nc3c3c4cccnc4n(C)c3c21 | 60.1 | 74 | 87 | 74.7 | 74.4 | 71 | 65.3 | 91 | 98.8 | 63 | 87.2 | 82.2 | 92.9 | 78 | 72.8 | 98.2 | 66 | 79.4 | 60.1 | 63.3 | inhibition [1]: inactive; growth at 10 µM (OVCAR-4): 80.1% |
| Cn1cc(-c2[nH]c(=S)[nH]c(=O)c2-c2cn(C)c3ccccc23)c2ccccc21 | 102 | 87 | 93.4 | 96.2 | 103 | 92.1 | 99 | 103 | 107 | 98.8 | 100 | 75 | 103 | 112 | 104 | 98.7 | 92.2 | 91.7 | 82.4 | 93.9 | growth at 10 µM (786-0): 107%; inhibition [1]: inactive; growth at 10 µM (COLO 205): 100%; growth at 10 µM (NCI-H322M): 96.5%; growth at 10 µM (OVCAR-4): 103% |
| Cn1cc(-c2c(-c3cn(C)c4ncccc34)nc(N)[nH]c2=O)c2ccccc21 | 95.8 | 95 | 97 | 96.5 | 97.1 | 84.2 | 92.5 | 104 | 106 | 98 | 98.3 | 96.3 | 102 | 98.5 | 105 | 99.7 | 99.9 | 96.4 | 90 | 90.4 | growth at 10 µM (786-0): 106%; growth at 10 µM (COLO 205): 106%; growth at 10 µM (NCI-H322M): 95.3%; growth at 10 µM (OVCAR-4): 88% |
